The target in assay [1] is T1, EGF-R Kinase (recombinant enzyme) (Homo sapiens, UniProt P00533).
T1 construct: EGFR cDNA encoding amino acids 645 - 1186 preceded by Met-Ala-(His)6; made in house; host or cells: Sf9 insect cells, recombinant baculovirus vHcEGFR52
In words: Inhibition of Epidermal Growth Factor Receptor Kinase (EGF-R) using recombinant enzyme. The assay is classed as biochemical. The note with it: RR-SRC peptide substrate, (a) = average of two tests. As for the experimental part:
Representative test compounds are evaluated in a standard pharmacological test procedure to measure their ability to inhibit the phosphorylation of the tyrosine residue of a peptide substrate catalyzed by the enzyme epidermal growth factor receptor kinase. […] The enzyme used in this assay is the His-tagged cytoplasmic domain of EGFR. […] Sf9 cells in 100 mm plates are infected at a multiplicity of infection of 10 pfu/cell and cells are harvested 48 h post infection. A cytoplasmic extract is prepared using 1% Triton X-100 and applied to Ni-NTA column. After washing the column with 20 mM imidazole, HcEGFR is eluted with 250 mM imidazole (in 50 mM Na2HPO4, pH 8.0, 300 mM NaCl). Fractions collected are dialyzed against 10 mM HEPES, pH 7.0, 50 mM NaCl, 10% glycerol, 1ug/mL antipain and leupeptin and 0.1 mM Pefabloc SC. The protein is frozen in dry ice/methanol and stored -70°C.
Test compounds are made into 10 mg/mL stock solutions in 100% dimethylsulfoxide (DMSO). Prior to experiment, stock solutions are diluted to 500 uM with 100% DMSO and then serially diluted to the desired concentration with HEPES buffer (30 mM HEPES pH 7.4).
For the enzyme reaction, 10 uL of each inhibitor (at various concentrations) are added to each well of a 96-well plate. To this is added 3 uL of enzyme (1:10 dilution in 10mM HEPES, pH 7.4 for final conc. of 1:120). This is allowed to sit for 10 min on ice and is followed by the addition of 5 ul peptide (80 uM final conc.), 10ul of 4X Buffer containing 50 mM HEPES (pH 7.4), 200 mM Na3VO4, 40mM MnCl2, 80 uM ATP, 0.25 uL ^33P-ATP (>2500 Ci/mmol; Amersham) and 12 uL H2O. The reaction is allowed to run for 90 min at room temperature and is followed by spotting the entire volume onto precut P81 filter papers. The filter discs are washed 2X with 0.5% phosphoric acid and radioactivity is measured using a liquid scintillation counter.
The % inhibition of the test compound is determined for at least three different concentrations and the IC50 value is evaluated from the dose response curve. […] CPM(control) is in units of counts per minute and is a number expressing the amount of radiolabled ATP (γ-^33P) incorporated into the RR-SRC peptide substrate by the enzyme after 90 minutes at room temperature in the absence of test compound as measured by liquid scintillation counting. The CPM values are corrected for the background counts produced by ATP in the absence of the enzymatic reaction.

For the next assay, the system named is SK-BR3. Put plainly: Inhibition of cancer cell growth as measured by cell number (Sulforhodamine B). The assay is classed as cell-based. The note with it: Homo sapiens, SK-BR-3; 48 hours exposure. Here is the method:
(§1) Human tumor cell lines are plated in 96-well plates (250 µl/well, 1-6 x 10^4 cells/ml) in RPMI 1640 medium, containing 5% FBS (Fetal Bovine Serum). Twenty four hours after plating, test compounds are added at various concentrations. After 48 hours exposure to test compounds, cells are fixed with trichloroacetic acid, and stained with Sulforhodamine B. After washing with trichloroacetic acid, bound dye is solubilized in 10 mM Tris base and optical density is determined using plate reader. Under conditions of the assay the optical density is proportional to the number of cells in the well. […] The test procedure is described in detail by Philip Skehan et. al, J. Natl. Canc. Inst., 82, 1107-1112 (1990). […] Information about some of the cell lines used in these test procedures is available from the American Type Tissue Collection: Cell Lines and Hybridomas, 1994 Reference Guide, 8th Edition.

The next assay relates to A431. The description is as above. The assay is classed as cell-based. The note with it: Homo sapiens, A-431; 48 hours exposure. As for the experimental part: as §1
For the next assay, the system named is MDA-MB-435. Described as above. The assay is classed as cell-based. The note with it: Homo sapiens, 48 hours exposure. Here is the method:
as §1

Another assay has as its system SW620. The description is as above. The assay is classed as cell-based. The note with it: Homo sapiens, SW-620; 48 hours exposure. As for the experimental part:
as §1

The next assay addresses T2, Raf-1 (c-Raf) (Homo sapiens, UniProt P04049).
T2 construct: Sf9 insect cell lysate containing full length 6his-tagged recombinant human c-Raf; host or cells: c-Raf: Sf9 insect cell lysate; MEK1 and MAPK: E. coli
Put plainly: Raf1 kinase cascade assay procedure. The assay is classed as biochemical.

Each structure is given as a SMILES string. In brackets after ≈: the same amount, converted by molar mass.

T2 sequence (P04049 whole entry): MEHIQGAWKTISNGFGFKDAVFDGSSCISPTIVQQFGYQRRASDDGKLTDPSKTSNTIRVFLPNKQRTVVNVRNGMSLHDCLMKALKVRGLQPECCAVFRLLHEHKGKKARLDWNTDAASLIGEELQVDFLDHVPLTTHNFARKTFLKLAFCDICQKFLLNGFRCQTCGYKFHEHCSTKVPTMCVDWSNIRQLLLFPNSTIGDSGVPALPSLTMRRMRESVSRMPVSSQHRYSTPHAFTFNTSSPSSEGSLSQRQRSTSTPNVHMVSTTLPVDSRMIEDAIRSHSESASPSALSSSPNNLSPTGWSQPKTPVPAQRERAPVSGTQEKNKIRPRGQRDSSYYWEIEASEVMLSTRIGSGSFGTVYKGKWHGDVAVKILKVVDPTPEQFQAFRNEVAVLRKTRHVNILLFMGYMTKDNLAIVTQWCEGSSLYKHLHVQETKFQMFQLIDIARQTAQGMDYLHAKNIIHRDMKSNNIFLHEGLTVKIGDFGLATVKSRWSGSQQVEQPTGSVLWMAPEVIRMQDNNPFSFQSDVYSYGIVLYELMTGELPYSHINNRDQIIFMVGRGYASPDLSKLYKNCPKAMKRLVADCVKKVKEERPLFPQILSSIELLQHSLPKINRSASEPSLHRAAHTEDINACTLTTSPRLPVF
T1 sequence (P00533 669-1210): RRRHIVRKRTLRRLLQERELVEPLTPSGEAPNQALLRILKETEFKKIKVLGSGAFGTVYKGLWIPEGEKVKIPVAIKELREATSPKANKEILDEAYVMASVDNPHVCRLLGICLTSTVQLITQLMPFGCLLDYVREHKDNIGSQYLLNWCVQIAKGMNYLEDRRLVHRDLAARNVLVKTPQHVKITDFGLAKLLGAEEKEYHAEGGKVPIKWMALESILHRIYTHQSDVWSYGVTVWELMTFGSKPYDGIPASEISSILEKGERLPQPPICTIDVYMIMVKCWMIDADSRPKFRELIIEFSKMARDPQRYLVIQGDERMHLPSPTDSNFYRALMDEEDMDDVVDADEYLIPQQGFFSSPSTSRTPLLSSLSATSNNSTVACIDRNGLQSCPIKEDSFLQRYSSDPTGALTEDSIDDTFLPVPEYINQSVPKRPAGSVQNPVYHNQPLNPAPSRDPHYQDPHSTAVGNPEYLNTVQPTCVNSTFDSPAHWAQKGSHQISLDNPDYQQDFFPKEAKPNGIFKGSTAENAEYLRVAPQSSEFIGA

Broadly, the IC50 is the concentration that gives 50% inhibition. With `COc1cc2cc3c(Nc4ccc(OCc5ccccc5)c(Cl)c4)c(C#N)cnc3cc2cc1OCCN1CCOCC1` [Example 218, 4-(4-Benzyloxy-3-chlorophenylamino)-7-methoxy-8-(2-morpholin-4-yl-ethoxy)benzo[g]quinoline-3-carbonitrile], the IC50 stood at 5.3 nM in assay [1]; 3.5 µg/mL (≈ 5.88 µM) in the assay with SK-BR3; 4.7 µg/mL (≈ 7.9 µM) in the assay with A431; 33.5 µg/mL (≈ 56.3 µM) in the assay on MDA-MB-435; 11.6 µg/mL (≈ 19.5 µM) in the assay with SW620; 660 nM against Raf-1 (c-Raf).

Source of the values: patent EP1242382B1, “TRICYCLIC PROTEIN KINASE INHIBITORS” (Wyeth, priority 1999, dated 2001).
